Measured values published in patent US11851411B2, “Herbicidal compounds” (SYNGENTA CROP PROTECTION AG, priority 2018, dated 2023).

Tests used:
Assay type in all cases: in vivo
[1] = test system: Amaranthus retoflexus (AMARE); test: Glasshouse herbicide test, pre-emergence; conditions: PRE Application; 500 g/h; evaluated after 13 days
Experimental: (§1) Seeds of a variety of test species are shown in standard soil in pots (Lolium perenne (LOLPE), Amaranthus retoflexus (AMARE), Abutilon theophrasti (ABUTH), Setaria faberi (SETFA), Echinochloa crus-galli (ECHCG), Ipomoea hederacea (IPOHE)). After cultivation for one day (pre-emergence) or after 8 days cultivation (post-emergence) under controlled conditions in a glasshouse (at 24/16° C., day/night; 14 hours light; 65% humidity), the plants are sprayed with an aqueous spray solution derived from the formulation of the technical active ingredient in acetone/water (50:50) solution containing 0.5% Tween 20 (polyoxyethelyene sorbitan monolaurate, CAS RN 9005-64-5). Compounds are applied at 500 g/h. The test plants are then grown in a glasshouse under controlled conditions in a glasshouse (at 24/16° C., day/night; 14 hours light; 65% humidity) and watered twice daily. After 13 days for pre and post-emergence, the test is evaluated for the percentage damage caused to the plant. The biological activities are shown in the following table on a five point scale (5=80-100%; 4=60-79%; 3=40-59%; 2=20-39%; 1=0-19%).

[2] = test system: Echinochloa crus-galli (ECHCG); test: Glasshouse herbicide test, pre-emergence; conditions: PRE Application; 500 g/h; evaluated after 13 days
Experimental: as §1

Setaria faberi (SETFA) [3] = test: Glasshouse herbicide test, pre-emergence; conditions: PRE Application; 500 g/h; evaluated after 13 days
Experimental: as §1

[4] = test system: Ipomoea hederacea (IPOHE); test: Glasshouse herbicide test, pre-emergence; conditions: PRE Application; 500 g/h; evaluated after 13 days
Experimental: as §1

[5] = test system: Abutilon theophrasti (ABUTH); test: Glasshouse herbicide test, pre-emergence; conditions: PRE Application; 500 g/h; evaluated after 13 days
Experimental: as §1

[6] = test system: Amaranthus retoflexus (AMARE); test: Glasshouse herbicide test, post-emergence; conditions: POST Application; 500 g/h; evaluated after 13 days
Experimental: as §1

[7] = test system: Echinochloa crus-galli (ECHCG); test: Glasshouse herbicide test, post-emergence; conditions: POST Application; 500 g/h; evaluated after 13 days
Experimental: as §1

Setaria faberi (SETFA) [8] = test: Glasshouse herbicide test, post-emergence; conditions: POST Application; 500 g/h; evaluated after 13 days
Experimental: as §1

[9] = test system: Ipomoea hederacea (IPOHE); test: Glasshouse herbicide test, post-emergence; conditions: POST Application; 500 g/h; evaluated after 13 days
Experimental: as §1

[10] = test system: Abutilon theophrasti (ABUTH); test: Glasshouse herbicide test, post-emergence; conditions: POST Application; 500 g/h; evaluated after 13 days
Experimental: as §1

Structure (SMILES)	percentage damage caused to the plant, five point scale, AMARE [1]	percentage damage caused to the plant, five point scale, ECHCG [2]	percentage damage caused to the plant, five point scale, SETFA (Setaria faberi (SETFA) [3])	percentage damage caused to the plant, five point scale, IPOHE [4]	percentage damage caused to the plant, five point scale, ABUTH [5]	percentage damage caused to the plant, five point scale, AMARE [6]	percentage damage caused to the plant, five point scale, ECHCG [7]	percentage damage caused to the plant, five point scale, SETFA (Setaria faberi (SETFA) [8])	percentage damage caused to the plant, five point scale, IPOHE [9]	percentage damage caused to the plant, five point scale, ABUTH [10]
CCCS(=O)(=O)c1ccc(C(=O)Nc2nnnn2C)c(Cl)c1N(C)OC [Compound 1.054]	5 (5=80-100%)	5 (5=80-100%)	5 (5=80-100%)	5 (5=80-100%)	5 (5=80-100%)	5 (5=80-100%)	5 (5=80-100%)	5 (5=80-100%)	5 (5=80-100%)	5 (5=80-100%)
CCON(C)c1c(S(C)(=O)=O)ccc(C(=O)Nc2nnnn2CC)c1Cl [Compound 1.055]	5 (5=80-100%)	5 (5=80-100%)	5 (5=80-100%)	5 (5=80-100%)	5 (5=80-100%)	5 (5=80-100%)	5 (5=80-100%)	5 (5=80-100%)	5 (5=80-100%)	5 (5=80-100%)
CCCON(C)c1c(S(C)(=O)=O)ccc(C(=O)Nc2nnnn2C)c1Cl [Compound 1.056]	5 (5=80-100%)	5 (5=80-100%)	5 (5=80-100%)	5 (5=80-100%)	5 (5=80-100%)	5 (5=80-100%)	5 (5=80-100%)	5 (5=80-100%)	5 (5=80-100%)	5 (5=80-100%)
CC(C)ON(C)c1c(S(C)(=O)=O)ccc(C(=O)Nc2nnnn2C)c1Cl [Compound 1.057]	5 (5=80-100%)	5 (5=80-100%)	5 (5=80-100%)	5 (5=80-100%)	5 (5=80-100%)	5 (5=80-100%)	5 (5=80-100%)	5 (5=80-100%)	5 (5=80-100%)	5 (5=80-100%)
CCS(=O)(=O)c1ccc(C(=O)Nc2nnnn2C)c(Cl)c1N(C)OC [Compound 1.062]	5 (5=80-100%)	5 (5=80-100%)	5 (5=80-100%)	5 (5=80-100%)	5 (5=80-100%)	5 (5=80-100%)	5 (5=80-100%)	5 (5=80-100%)	5 (5=80-100%)	5 (5=80-100%)
CON(C(=O)C(C)(C)C)c1c(C(F)(F)F)ccc(C(=O)Nc2nnnn2C)c1F [Compound 1.063]	5 (5=80-100%)	5 (5=80-100%)	5 (5=80-100%)	2 (2=20-39%)	5 (5=80-100%)	5 (5=80-100%)	5 (5=80-100%)	5 (5=80-100%)	4 (4=60-79%)	5 (5=80-100%)
CON(C)c1c(C(F)(F)F)ccc(C(=O)Nc2nnnn2C)c1F [Compound 1.065]	5 (5=80-100%)	5 (5=80-100%)	5 (5=80-100%)	5 (5=80-100%)	5 (5=80-100%)	5 (5=80-100%)	5 (5=80-100%)	5 (5=80-100%)	5 (5=80-100%)	5 (5=80-100%)
CON(C(C)=O)c1c(C(F)(F)F)ccc(C(=O)Nc2nnc(C)o2)c1Cl [Compound 2.001]	5 (5=80-100%)	5 (5=80-100%)	5 (5=80-100%)	4 (4=60-79%)	5 (5=80-100%)	5 (5=80-100%)	5 (5=80-100%)	5 (5=80-100%)	5 (5=80-100%)	5 (5=80-100%)
CON(C(=O)OC(C)(C)C)c1c(C(F)(F)F)ccc(C(=O)Nc2nnc(C)o2)c1Cl [Compound 2.009, tert-butyl N-[2-chloro-3-[(5-methyl-1,3,4-oxadiazol-2-yl)carbamoyl]-6-(trifluoromethyl)phenyl]-N-methoxy-carbamate]	5 (5=80-100%)	5 (5=80-100%)	2 (2=20-39%)	1 (1=0-19%)	3 (3=40-59%)	3 (3=40-59%)	5 (5=80-100%)	5 (5=80-100%)	3 (3=40-59%)	3 (3=40-59%)
CCC(=O)N(OC)c1c(C(F)(F)F)ccc(C(=O)Nc2nnc(C)o2)c1Cl [Compound 2.018]	5 (5=80-100%)	5 (5=80-100%)	5 (5=80-100%)	4 (4=60-79%)	5 (5=80-100%)	5 (5=80-100%)	5 (5=80-100%)	5 (5=80-100%)	5 (5=80-100%)	5 (5=80-100%)
